Test results from BindingDB's records for doi:10.1016/j.bmcl.2007.05.099 (Southern Research Institute, 2007).

assay: Inhibition of Mycobacterium smegmatis arabinosyl transferase assessed as [14C]arabinofuranose incorporation

| Structure (SMILES) | IC50 [mM] |
| --- | --- |
| O[C@H]1[C@H](O)[C@@H](CN(CC2CCCCC2)CC2CCCCC2)O[C@@H]1CC[C@H]1O[C@H](CN(CC2CCCCC2)CC2CCCCC2)[C@@H](O)[C@@H]1O [(2R,3S,4S,5R)-2-((bis(cyclohexylmethyl)amino)methyl)-5-(2-((2R,3S,4S,5R)-5-((bis(cyclohexylmethyl)amino)methyl)-3,4-dihydroxy-tetrahydrofuran-2-yl)ethyl)-tetrahydrofuran-3,4-diol] | 3.44 |
| O[C@H]1[C@H](O)[C@@H](CN(CC2CCCCC2)CC2CCCCC2)O[C@@H]1/C=C/[C@H]1O[C@H](CN(CC2CCCCC2)CC2CCCCC2)[C@@H](O)[C@@H]1O [(2R,3S,4S,5R)-2-((bis(cyclohexylmethyl)amino)methyl)-5-(2-((2R,3S,4S,5R)-5-((bis(cyclohexylmethyl)amino)methyl)-3,4-dihydroxy-tetrahydrofuran-2-yl)vinyl)-tetrahydrofuran-3,4-diol] | 4.15 |
| O[C@@H]1[C@@H](OC[C@H]2O[C@H](CN(CC3CCCCC3)CC3CCCCC3)[C@@H](O)[C@@H]2O)O[C@H](CN(CC2CCCCC2)CC2CCCCC2)[C@H]1O [(2R,3S,4S,5R)-2-((bis(cyclohexylmethyl)amino)methyl)-5-(((2S,3S,4S,5R)-5-((bis(cyclohexylmethyl)amino)methyl)-3,4-dihydroxy-tetrahydrofuran-2-yloxy)methyl)-tetrahydrofuran-3,4-diol] | 2.8 |
